# From patent publication US9579401B2, “Staining composition” (Medical Technology Transfer Holding B.V., priority 2010, dated 2017)
# Assay: Stability of trypan blue and brilliant blue G in polymer solutions, 70° C. for 7 days, absorbance spectra
# Conditions: 0.025% (w/v)
compound,measurement,setting,value
CCOc1ccc(Nc2ccc(/C(=C3C=C/C(=[N+](/CC)Cc4cccc(S(=O)(=O)[O-])c4)C=C/3C)c3ccc(N(CC)Cc4cccc(S(=O)(=O)[O-])c4)cc3C)cc2)cc1.[Na+] [brilliant blue G],stability of brilliant blue G (difference absorbance spectra),4% (w/v) PEG Mw≈3350,excellent solvent
same,stability of brilliant blue G (difference absorbance spectra),"PVA Mw≈13,000-23,000",much less stable
